Test results taken from ChEMBL document CHEMBL1201862, “PubChem BioAssay data set” (2004).
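Grown in 96-well plates, cells were treated for 48 hours with each compound at five concentrations. Insufficient inhibition: endpoint recorded as highest concentration tested. GI50 = concentration required for 50% inhibition of growth.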 The source made the active and inactive calls. Rule as the data show it: active = GI50 up to about 1.1 µM and inactive = higher. Where a SMILES comes first, the peptide text is derived from it. [ ]: non-standard residue; d: D form. The star is where a group is joined. Bn2Val = CC(C)[C@@H](C(=O)*)N(Cc1ccccc1)Cc1ccccc1; NH(4-F-benzyl) = Fc1ccc(CN*)cc1; NMeV = CN[C@H](C(=O)O)C(C)C; dNMeA = CN[C@H](C)C(=O)O

What was measured:
Experiment in all cases: inhibition of tumour cell growth, NCI panel, 48 h
786-0 = system: 786-0
DU-145 = system: DU-145
HOP-92 = system: HOP-92
IGROV-1 = system: IGROV-1
K562 = system: K562
LOX IMVI = system: LOX IMVI
M14 = system: M14
MDA-N = system: MDA-N
NCI-H23 = system: NCI-H23
NCI-H522 = system: NCI-H522
OVCAR-3 = system: OVCAR-3
PC-3 = system: PC-3
RXF 393 = system: RXF 393
SK-MEL-28 = system: SK-MEL-28
SK-MEL-5 = system: SK-MEL-5
SK-OV-3 = system: SK-OV-3
SW-620 = system: SW-620
TK-10 = system: TK-10
U-251 = system: U-251
UACC-257 = system: UACC-257

Row | SMILES | GI50 (786-0) | GI50 (DU-145) | GI50 (HOP-92) | GI50 (IGROV-1) | GI50 (K562) | GI50 (LOX IMVI) | GI50 (M14) | GI50 (MDA-N) | GI50 (NCI-H23) | GI50 (NCI-H522) | GI50 (OVCAR-3) | GI50 (PC-3) | GI50 (RXF 393) | GI50 (SK-MEL-28) | GI50 (SK-MEL-5) | GI50 (SK-OV-3) | GI50 (SW-620) | GI50 (TK-10) | GI50 (U-251) | GI50 (UACC-257)
1 | CCOP(=O)(OCC)/C(C#N)=C/c1c[nH]c2ccccc12 | > 100 µM (inactive) | > 100 µM (inactive) | > 100 µM (inactive) | > 100 µM (inactive) | > 100 µM (inactive) | > 100 µM (inactive) | > 100 µM (inactive) | > 100 µM (inactive) | > 100 µM (inactive) | > 100 µM (inactive) | 62.8 µM (inactive) | > 100 µM (inactive) | > 100 µM (inactive) | > 100 µM (inactive) | > 100 µM (inactive) | > 100 µM (inactive) | > 100 µM (inactive) | > 100 µM (inactive) | > 100 µM (inactive) | > 100 µM (inactive)
2 | CC1=NC(=Cc2cc(Br)cc(Br)c2)C(=O)N1n1c(-c2ccccc2)nc2ccccc2c1=O | > 100 µM (inactive) | > 100 µM (inactive) | > 100 µM (inactive) | > 100 µM (inactive) | > 100 µM (inactive) | > 100 µM (inactive) | > 100 µM (inactive) | > 100 µM (inactive) | > 100 µM (inactive) | > 100 µM (inactive) | > 100 µM (inactive) | > 100 µM (inactive) | > 100 µM (inactive) | > 100 µM (inactive) | > 100 µM (inactive) | > 100 µM (inactive) | > 100 µM (inactive) | > 100 µM (inactive) | > 100 µM (inactive) | > 100 µM (inactive)
3 | COc1ccc(/C=C2\C[C@H]3[C@@H]4CC=C5C[C@@H](O)CC[C@]5(C)[C@H]4CC[C@]3(C)\C2=N\O)cc1 | 14.3 µM (inactive) | 22.4 µM (inactive) | 25.6 µM (inactive) | 38.2 µM (inactive) | 4.85 µM (inactive) | 11.6 µM (inactive) | 12.7 µM (inactive) | 18.8 µM (inactive) | 16.9 µM (inactive) | 4.97 µM (inactive) | 6.89 µM (inactive) | 8.45 µM (inactive) | 12.7 µM (inactive) | 24.2 µM (inactive) | 5.04 µM (inactive) | 34.9 µM (inactive) | 26.7 µM (inactive) | 27.6 µM (inactive) | 10.5 µM (inactive) | 7.21 µM (inactive)
4 | CC1=NN=C(C)C1/N=N/c1ccc2[nH]c(C)nc2c1 | 34.4 µM (inactive) | 9.23 µM (inactive) | 14.8 µM (inactive) | 5.62 µM (inactive) | > 69.2 µM (inactive) | 9.1 µM (inactive) | 23.1 µM (inactive) | 19.8 µM (inactive) | 37.3 µM (inactive) | 6.95 µM (inactive) | 13.4 µM (inactive) | 27.7 µM (inactive) | 5.16 µM (inactive) | 35.6 µM (inactive) | 18.2 µM (inactive) | 5.27 µM (inactive) | 25.3 µM (inactive) | 14.1 µM (inactive) | 34.6 µM (inactive) | 47.6 µM (inactive)
5 | COc1ccc2[nH]c3c(C)c4ccnc(NCCCN(C)CCCNC(=O)NCCCN(C)CCCNc5nccc6c(C)c7[nH]c8ccc(OC)cc8c7c(C)c56)c4c(C)c3c2c1 | 0.233 µM (active) | 1.19 µM (inactive) | 0.406 µM (active) | 0.476 µM (active) | 0.23 µM (active) | 0.855 µM (active) | 0.753 µM (active) | 0.748 µM (active) | 0.989 µM (active) | 0.226 µM (active) | 1.29 µM (inactive) | 0.92 µM (active) | 0.369 µM (active) | 1.48 µM (inactive) | 0.774 µM (active) | 1.67 µM (inactive) | 0.202 µM (active) | 1.48 µM (inactive) | 0.205 µM (active) | 1.6 µM (inactive)
6 | CC(C)[C@H](NC(=O)[C@H](C(C)C)N(Cc1ccccc1)Cc1ccccc1)C(=O)N(C)[C@H](C(=O)N1CCC[C@H]1C(=O)N(C)[C@H](C)C(=O)NCc1ccc(F)cc1)C(C)C (Bn2Val-V[NMeV]P[dNMeA]-{NH(4-F-benzyl)}) | 4.23 µM (inactive) | 4.88 µM (inactive) | 2.97 µM (inactive) | 3.19 µM (inactive) | 3.78 µM (inactive) | 1.85 µM (inactive) | 3.05 µM (inactive) | 4.29 µM (inactive) | 3.82 µM (inactive) | 3.01 µM (inactive) | 2.88 µM (inactive) | 3.18 µM (inactive) | 2.34 µM (inactive) | 7.29 µM (inactive) | 2.22 µM (inactive) | 5.35 µM (inactive) | 4.25 µM (inactive) | 5.48 µM (inactive) | 3.3 µM (inactive) | 5.19 µM (inactive)
7 | CC(C)(C)[Si](C)(C)OCC#C[C@@]1(O)CCCCC1CC(Sc1ccccc1)Sc1ccccc1 (stereo not given in full) | 13.5 µM (inactive) | 15.8 µM (inactive) | 15.6 µM (inactive) | 16.1 µM (inactive) | 14.2 µM (inactive) | 17.3 µM (inactive) | 18.2 µM (inactive) | 18.2 µM (inactive) | 14.9 µM (inactive) | 11.4 µM (inactive) | 12.9 µM (inactive) | 13.5 µM (inactive) | 12.5 µM (inactive) | 16.3 µM (inactive) | 15.7 µM (inactive) | 15.7 µM (inactive) | 15.1 µM (inactive) | 17.9 µM (inactive) | 13.3 µM (inactive) | 15.5 µM (inactive)
8 | Cc1cccc(C2ON=C(c3ccccc3)N2C23CC4CC(CC(C4)C2)C3)c1 (stereo not given) | > 10 µM (inactive) | > 10 µM (inactive) | > 10 µM (inactive) | > 10 µM (inactive) | > 10 µM (inactive) | > 10 µM (inactive) | > 10 µM (inactive) | > 10 µM (inactive) | > 10 µM (inactive) | > 10 µM (inactive) | > 10 µM (inactive) | > 10 µM (inactive) | > 10 µM (inactive) | > 10 µM (inactive) | > 10 µM (inactive) | > 10 µM (inactive) | > 10 µM (inactive) | > 10 µM (inactive) | > 10 µM (inactive) | > 10 µM (inactive)
9 | O=C(O)c1cccc(S(=O)(=O)NN2C(=O)CSC2c2ccccc2)c1 (stereo not given) | > 100 µM (inactive) | > 100 µM (inactive) | > 100 µM (inactive) | > 100 µM (inactive) | > 100 µM (inactive) | > 100 µM (inactive) | > 100 µM (inactive) | 74.6 µM (inactive) | > 100 µM (inactive) | 27.6 µM (inactive) | > 100 µM (inactive) | > 100 µM (inactive) | > 100 µM (inactive) | > 100 µM (inactive) | > 100 µM (inactive) | > 100 µM (inactive) | > 100 µM (inactive) | > 100 µM (inactive) | > 100 µM (inactive) | > 100 µM (inactive)
